# B1: PUFa-GADD45A-TET1(CD): GADD45A between PUFa and TET1(CD); SEQ ID NO:105 (protein)
# chain: MIDGGGGSDPKKKRKVDPKKKRKVDPKKKRKVGSTGSRNDGGGGSGGGGSGGGGSGRAGILPPKKKRKVSRGRSRLLEDFRNNRYPNLQLREIAGHIMEFSQDQHGSRFIQLKLERATPAERQLVFNEILQAAYQLMVDVFGNYVIQKFFEFGSLEQKLALAERIRGHVLSLALQMYGSRVIEKALEFIPSDQQNEMVRELDGHVLKCVKDQNGNHVVQKCIECVQPQSLQFIIDAFKGQVFALSTHPYGCRVIQRILEHCLPDQTLPILEELHQHTEQLVQDQYGNYVIQHVLEHGRPEDKSKIVAEIRGNVLVLSQHKFASNVVEKCVTHASRTERAVLIDEVCTMNDGPHSALYTMMKDQYANYVVQKMIDVAEPGQRKIVMHKIRPHIATLRKYTYGKHILAKLEKYYMKNGVDLGDPKKKRKVDPKKKRKVGGRGGGSGGGSGGGSGGGSGGGSGGGSLTLEEFSAGEQKTERMDKVGDALEEVLSKALSQRTITVGVYEAAKLLNVDPDNVVLCLLAADEDDDRDVALQIHFTLIQAFCCENDINILRVSNPGRLAELLLLETDAGPAASEGAEQPPDLHCVLVTNPHSSQWKDPALSQLICFCRESRYMDQWVPVINLPERSRGRGGGGSGGGGSGGGGSGPAELPTCSCLDRVIQKDKGPYYTHLGAGPSVAAVREIMENRYGQKGNAIRIEIVVYTGKEGKSSHGCPIAKWVLRRSSDEEKVLCLVRQRTGHHCPTAVMVVLIMVWDGIPLPMADRLYTELTENLKSYNGHPTDRRCTLNENRTCTCQGIDPETCGASFSFGCSWSMYFNGCKFGRSPSPRRFRIDPSSPLHEKNLEDNLQSLATRLAPIYKQYAPVAYQNQVEYENVARECRLGSKEGRPFSGVTACLDFCAHPHRDIHNMNNGSTVVCTLTREDNRSLGVIPQDEQLHVLPLYKLSDTDEFGSKEGMEAKIKSGAIEVLAPRRKKRTCFTQPVPRSGKKRAAMMTEVLAHKIRAVEKKPIPRIKRKNNSTTTNNSKPSSLPTLGSNTETVQPEVKSETEPHFILKSSDNTKTYSLMPSAPHPVKEASPGFSWSPKTASATPAPLKNDATASCGFSERSSTPHCTMPSGRLSGANAAAADGPGISQLGEVAPLPTLSAPVMEPLINSEPSTGVTEPLTPHQPNHQPSFLTSPQDLASSPMEEDEQHSEADEPPSDEPLSDDPLSPAEEKLPHIDEYWSDSEHIFLDANIGGVAIAPAHGSVLIECARRELHATTPVEHPNRNHPTRLSLVFYQHKNLNKPQHGFELNKIKFEAKEAKNKKMKASEQKDQAANEGPEQSSEVNELNQIPSHKALTLTHDNVVTVSPYALTHVAGPYNHWVID
# B2: PUFc-GADD45A: SEQ ID NO:106 (protein)
# chain: MIDGGGGSDPKKKRKVDPKKKRKVDPKKKRKVGSTGSRNDGGGGSGGGGSGGGGSGRAGILPPKKKRKVSRGRSRLLEDFRNNRYPNLQLREIAGHIMEFSQDQHGSRFIQLKLERATPAERQLVFNEILQAAYQLMVDVFGNYVIQKFFEFGSLEQKLALAERIRGHVLSLALQMYGSRVIEKALEFIPSDQQNEMVRELDGHVLKCVKDQNGNHVVQKCIECVQPQSLQFIIDAFKGQVFALSTHPYGCRVIQRILEHCLPDQTLPILEELHQHTEQLVQDQYGSYVIEHVLEHGRPEDKSKIVAEIRGNVLVLSQHKFANNVVQKCVTHASRTERAVLIDEVCTMNDGPHSALYTMMKDQYANYVVQKMIDVAEPGQRKIVMHKIRPHIATLRKYTYGKHILAKLEKYYMKNGVDLGDPKKKRKVDPKKKRKVGGRGGGGSGGGGSGGGGSGPALTLEEFSAGEQKTERMDKVGDALEEVLSKALSQRTITVGVYEAAKLLNVDPDNVVLCLLAADEDDDRDVALQIHFTLIQAFCCENDINILRVSNPGRLAELLLLETDAGPAASEGAEQPPDLHCVLVTNPHSSQWKDPALSQLICFCRESRYMDQWVPVINLPERSRYPYDVPDYA
# B3: GADD45A-PUFc: SEQ ID NO:107 (protein)
# chain: MTLEEFSAGEQKTERMDKVGDALEEVLSKALSQRTITVGVYEAAKLLNVDPDNVVLCLLAADEDDDRDVALQIHFTLIQAFCCENDINILRVSNPGRLAELLLLETDAGPAASEGAEQPPDLHCVLVTNPHSSQWKDPALSQLICFCRESRYMDQWVPVINLPERSRYPYDVPDYAIDGGGGSDPKKKRKVDPKKKRKVDPKKKRKVGSTGSRNDGGGGSGGGGSGGGGSGRAGILPPKKKRKVSRGRSRLLEDFRNNRYPNLQLREIAGHIMEFSQDQHGSRFIQLKLERATPAERQLVFNEILQAAYQLMVDVFGNYVIQKFFEFGSLEQKLALAERIRGHVLSLALQMYGSRVIEKALEFIPSDQQNEMVRELDGHVLKCVKDQNGNHVVQKCIECVQPQSLQFIIDAFKGQVFALSTHPYGCRVIQRILEHCLPDQTLPILEELHQHTEQLVQDQYGSYVIEHVLEHGRPEDKSKIVAEIRGNVLVLSQHKFANNVVQKCVTHASRTERAVLIDEVCTMNDGPHSALYTMMKDQYANYVVQKMIDVAEPGQRKIVMHKIRPHIATLRKYTYGKHILAKLEKYYMKNGVDLGDPKKKRKVDPKKKRKVGGRGGGGSGGGGSGGGGSGPA
# B4: TET1(CD)-PUFa: TET1 catalytic domain fused to N-terminus of PUFa; SEQ ID NO:54 (protein)
# chain: MGPAELPTCSCLDRVIQKDKGPYYTHLGAGPSVAAVREIMENRYGQKGNAIRIEIVVYTGKEGKSSHGCPIAKWVLRRSSDEEKVLCLVRQRTGHHCPTAVMVVLIMVWDGIPLPMADRLYTELTENLKSYNGHPTDRRCTLNENRTCTCQGIDPETCGASFSFGCSWSMYFNGCKFGRSPSPRRFRIDPSSPLHEKNLEDNLQSLATRLAPIYKQYAPVAYQNQVEYENVARECRLGSKEGRPFSGVTACLDFCAHPHRDIHNMNNGSTVVCTLTREDNRSLGVIPQDEQLHVLPLYKLSDTDEFGSKEGMEAKIKSGAIEVLAPRRKKRTCFTQPVPRSGKKRAAMMTEVLAHKIRAVEKKPIPRIKRKNNSTTTNNSKPSSLPTLGSNTETVQPEVKSETEPHFILKSSDNTKTYSLMPSAPHPVKEASPGFSWSPKTASATPAPLKNDATASCGFSERSSTPHCTMPSGRLSGANAAAADGPGISQLGEVAPLPTLSAPVMEPLINSEPSTGVTEPLTPHQPNHQPSFLTSPQDLASSPMEEDEQHSEADEPPSDEPLSDDPLSPAEEKLPHIDEYWSDSEHIFLDANIGGVAIAPAHGSVLIECARRELHATTPVEHPNRNHPTRLSLVFYQHKNLNKPQHGFELNKIKFEAKEAKNKKMKASEQKDQAANEGPEQSSEVNELNQIPSHKALTLTHDNVVTVSPYALTHVAGPYNHWVIDGGGGSDPKKKRKVDPKKKRKVDPKKKRKVGSTGSRNDGGGGSGGGGSGGGGSGRAGILPPKKKRKVSRGRSRLLEDFRNNRYPNLQLREIAGHIMEFSQDQHGSRFIQLKLERATPAERQLVFNEILQAAYQLMVDVFGNYVIQKFFEFGSLEQKLALAERIRGHVLSLALQMYGSRVIEKALEFIPSDQQNEMVRELDGHVLKCVKDQNGNHVVQKCIECVQPQSLQFIIDAFKGQVFALSTHPYGCRVIQRILEHCLPDQTLPILEELHQHTEQLVQDQYGNYVIQHVLEHGRPEDKSKIVAEIRGNVLVLSQHKFASNVVEKCVTHASRTERAVLIDEVCTMNDGPHSALYTMMKDQYANYVVQKMIDVAEPGQRKIVMHKIRPHIATLRKYTYGKHILAKLEKYYMKNGVDLGDPKKKRKVDPKKKRKVGGRGGGGSGGGGSGGGGSGPA
# System: hMLH1 expression (methylation-silenced hMLH1 promoter) in HEK293T cells
# Experiment: hMLH1 mRNA levels by TaqMan qRT-PCR in transfected HEK293T cells
# Type: cell-based, human
# Conditions: for hMLH1 activation, comparison in words (direct dCas9 fusions vs Casilio-ME): same combination of sgRNAs; for hMLH1 expression, fold over background (change in mRNA levels): sgRNAs 3+7, 60 hours post-transfection, GAPDH control; for stimulation of TET1(CD) mediated hMLH1 activation by GADD45A PUFc fusions: co-expressed with PUFa-TET1(CD), gRNAs-PBSac
# Experimental: To test the system, HEK293T cells were transfected with Casilio-ME components including Ct or Nt-fusion TET1-effector and a combination of 3 or 2 sgRNAs. Relative levels of hMLH1 mRNA were determined in TaqMan assays by using RNA extracted from cells 60 hours post-transfection and GAPDH as endogenous control for normalization of qRT-PCR measurements.
# Cell culture and transfection. HEK293T cells were cultivated in Dulbecco's modified Eagle's medium (DMEM)(Sigma) with 10% fetal bovine serum (FBS)(Lonza), 4% Glutamax (Gibco), 1% Sodium Pyruvate (Gibco) and penicillin-streptomycin (Gibco) in an incubator set to 37° C. and 5% CO2. When indicated cells were treated with 2.5 μM or 5 μM 5-Azacytidine (sigma) as indicated with a daily change of medium containing freshly diluted drug. Cells were seeded into 12-well plates at 150,000 cells per well the day before being transfected with 100 ng of dCas9 construct, 100 ng of modified sgRNA construct and 200 ng of PUF-fusion with Attractene transfection reagent according to manufacturer's instructions (Qiagen). In dCas9-direct fusion experiments, cells were transfected with 200 ng dCas9-fusion constructs and 200 ng of modified sgRNA constructs. Transfected cells were harvested 60 hours after transfection, or otherwise indicated, and cell pellets were used for extractions of RNA, genomic DNA and protein.
# Quantitative RT-PCR analysis. Cells were harvested, washed with Dulbecco's phosphate-buffered saline (dPBS), centrifuged at 125×g for 5 min and then the flash-frozen pellets were stored at −80° C. RNA was extracted using RNeasy Plus Mini Kit according to the manufacturer's instructions (Qiagen). cDNA libraries were made using Applied Biosystems High Capacity RNA-to-cDNA kit with 200 ng to 1 μg of RNA. TaqMan gene expression assays (Applied Biosystems) were designed using GAPDH (Hs03929097, VIC) as endogenous control and hMLH1 (Hs00179866, FAM) as target. TaqMan Universal Master Mix II, with UNG (Applied Biosystems) was used for Quantitative PCR (qPCR), with 2 μl of diluted cDNA used for each reaction. Activation was analyzed with the Applied Biosystems ViiA7 instrument. Gene expression levels were calculated by “delta delta Ct” algorithm and normalized to control samples.
# HEK293T cells were cultivated in Dulbecco's modified Eagle's medium (DMEM) (Sigma) with 10% fetal bovine serum (FBS) (Lonza), 4% Glutamax (Gibco), 1% Sodium Pyruvate (Gibco) and penicillin-streptomycin (Gibco) in an incubator set to 37° C. and 5% CO2. Cells were seeded into 12-well plates at 150,000 cells per well the day before being transfected with 100 ng of dCas9 construct, 100 ng of modified sgRNA construct and 200 ng of PUF-fusion with Attractene transfection reagent according to manufacturer's instructions (Qiagen). Transfected cells were harvested 3 days after transfection, or otherwise indicated, and cell pellets were used for RNA extractions.
# Cells were harvested, washed with Dulbecco's phosphate-buffered saline (dPBS), centrifuged at 125×g for 5 min and then the flash-frozen pellets were stored at −80° C. RNA was extracted using RNeasy Plus Mini Kit according to the manufacturer's instructions (Qiagen). cDNA libraries were made using Applied Biosystems High Capacity RNA-to-cDNA kit with 200 ng to 2 μg of RNA. TaqMan gene expression assays (Applied Biosystems) were designed using GAPDH (Hs03929097, VIC) as endogenous control and hMLH1 (Hs00179866, FAM) as target. TaqMan Universal Master Mix II, with UNG (Applied Biosystems) was used for Quantitative PCR (qPCR), with 2 μl of diluted cDNA used for each reaction. Activation was analyzed with the Applied Biosystems ViiA7 instrument. Gene expression levels were calculated by “delta delta Ct” algorithm and normalized to control samples.
Molecule,"hMLH1 activation, comparison in words (direct dCas9 fusions vs Casilio-ME) (HEK293T)","hMLH1 expression, fold over background (change in mRNA levels) (HEK293T)",stimulation of TET1(CD) mediated hMLH1 activation by GADD45A PUFc fusions,other results
TET1(CD)-dCas9: direct N-terminal fusion of TET1(CD) to dCas9; SEQ ID NO:52,much weaker activation than its respective C-terminal fusion,,,
dCas9-TET1(CD): direct C-terminal fusion of TET1(CD) to dCas9; SEQ ID NO:53,relatively weak activation,19 fold,,"hMLH1 activation relative to dCas9-p65HSF1 (HEK293T, same sgRNA combination): at best twice the activity obtained with transcription activator dCas9 fusion; hMLH1 activation as share of activation obtained using Casilio-ME (same sgRNAs combination, parallel experiment): about 14%"
B1,,,,"enhancement of hMLH1 expression relative to PUFa-TET1(CD) alone (GADD45A two-in-one effectors, HEK293T, TaqMan): 4 fold"
B2,,,significant stimulation of the TET1(CD) mediated hMLH1 activation,
B3,,,higher activity compared to PUFc-GADD45A fusions,
B4,,≤ 20 fold,,
